{
  "source": "paper PMC6187632",
  "about": "“A glutaredoxin domain fused to the radical-generating subunit of ribonucleotide reductase (RNR) functions as an efficient RNR reductant” (The Journal of Biological Chemistry, 2018)",
  "molecules": {"B1": {"name": "Facklamia ignava NrdA (NrdAi) (enzyme, UniProt K1MC37 1-567, looked up)", "chain": "MTAQLKNREYEPFYWLTEDSQTFLERGYLREGQDAHSRLREIADRAEEILGIDGFSDKFYTYLGRGYYSLSTPVWTNFGSNRGFPISCFGSTPDDNMASILYTAAEIGMMSKYGGGTSGFFGHLRPRGAAITNNGYSSGAVHFMKLFEQMTDTVSQGSSRRGRFAPYLPIDHPDIDEFLEIGVEGNDIQDLNHAVTVPDDWMREMIQGDREKRATWAKVIQRRVEMGYPYILFTDTINNNKPEWYHDYPITHSNLCSEIMLPDNDHWSFVCNLSSMNVLHYNEWKDTDAVETMIYFLDAVMSEFIEKLEKLRDSDQFEYREAFHFMERAYNFAVENRALGLGVLGWHSLLQSNLIAFESEEASYLNEEIHRTIQERAEKASCELAELFGEPLILKGTGRRNTTTMAIAPTTSSAFIIGQVSQSIEPLFSNYYVKDMSKIKTTIRNRYLVELLEEKGRNTPDVWESIKNHDGSVLHLDFLSDHEKNVFKTFAEINQYEIINQAAVRQRYIDQSQSLNIMINPATTTAKEMNQLYLYAWESGIKSLYYQHSTSAAQAFYRSSVCLACEA", "notes": "NrdA (NrdAi), catalytic subunit of the class I ribonucleotide reductase of Facklamia ignava CCUG 37419; amplified from genomic DNA with primers from the start ATG to the stop codon; a thrombin cleavage site follows the His6 tag; the form rests on the printed primers (ATG to stop); source: E. coli BL21(DE3), pET-28a(+), purified (HisTrap nickel-Sepharose, Superdex 200, phenyl-Sepharose)"}, "B2": {"name": "Facklamia ignava NrdB (Grx::ATP-cone::NrdB fusion protein, NrdBi) (enzyme, UniProt K1LAT4 1-496, looked up)", "chain": "MTQVQVYSKKVCPWCTRLKDWMDKNNIDYEEIDIEVHPEAREYLHSLGLKTVPQVFIDGVHRPHEPLYSNLLHYIHGTSKIPQHVTKRNGDRVDFDPTKIEIAIQKANNETHELNDMEINTVTQKVVEKIDIDPIHVEEIQDLVETELMLQSFPRTAKAYILYRAEQTKARQRDIFKPRKNLKPYEYPELESYKEAIQHSYWLHTEYNYTSDIQDYKINVEPHERTAIRNAMLAISQVEVSVKTFWAKLYDRLPKPELANVGMTFAESEVRHSDAYSHLLELLGLNEIFEEIEQIPALNQRVDYLNSHIKYSQTGSNRDYTISILLFSAFIEHISLFSQFLIIMAFNKQKNLFSGISNVIEATSKEEQLHGEFGIDLINTIKAENPDWFDDELKEEIYTLVKQAYESEKDVLDWIYEDGEIDFMPTQTVLEFIKNRLNNSLEAIGLERIFETDLAEVEKTLWFDEEIVSTKHVDFFAKRSVNYTKRSQSMTADDLF", "notes": "NrdB (NrdBi) of Facklamia ignava CCUG 37419, 496 residues: Grx domain (residues 4-61), ATP cone (residues 84-169), then the NrdB proper; amplified from genomic DNA with primers from the start ATG to the stop codon; a thrombin cleavage site follows the His6 tag; Expressed with 0.5 mM MnSO4; holds a Mn(III)/Mn(IV) cofactor; Dimer or tetramer by condition; also called WT NrdB; source: E. coli …"}},
  "key": {"[1]": {"biological_target": "T1, F. ignava NrdB (Grx::NrdB fusion protein, NrdBi) (Falseniella ignava, UniProt K1LAT4)", "T1 construct": "gene HMPREF9707_01368; full-length 496-residue fusion (Grx 4-61, ATP cone 84-169, NrdB core); E. coli BL21(DE3); dimer-tetramer equilibrium", "experiment": "biochemical", "format": "binding"}, "[2]": {"biological_target": "T1, F. ignava NrdB (Grx::NrdB fusion protein, NrdBi)", "experiment": "glutaredoxin activity, NADPH consumption at […] nm (GSH reductase coupled)", "format": "biochemical", "settings": "4 mM GSH, 0.4 mM NADPH, pH 8.0, room temperature; Grx domain; artificial substrate"}, "[3]": {"biological_target": "T2, F. ignava NrdB (Grx::NrdB fusion protein, NrdBi) (Falseniella ignava, UniProt K1LAT4, C15S)", "T2 construct": "gene HMPREF9707_01368; full-length 496-residue fusion (Grx 4-61, ATP cone 84-169, NrdB core); E. coli BL21(DE3); dimer-tetramer equilibrium", "experiment": "glutaredoxin activity, NADPH consumption at […] nm (GSH reductase coupled)", "format": "biochemical", "settings": "4 mM GSH, 0.4 mM NADPH, pH 8.0, room temperature; Grx domain, monothiol mechanism"}, "[4]": {"biological_target": "T3, F. ignava RNR holoenzyme (NrdA + NrdB) (Falseniella ignava, UniProt K1LAT4)", "T3 construct": "gene HMPREF9707_01368; E. coli BL21(DE3); active complex alpha2beta2; with Ribonucleoside-diphosphate reductase subunit alpha", "T3 sequence (K1LAT4 1-496)": "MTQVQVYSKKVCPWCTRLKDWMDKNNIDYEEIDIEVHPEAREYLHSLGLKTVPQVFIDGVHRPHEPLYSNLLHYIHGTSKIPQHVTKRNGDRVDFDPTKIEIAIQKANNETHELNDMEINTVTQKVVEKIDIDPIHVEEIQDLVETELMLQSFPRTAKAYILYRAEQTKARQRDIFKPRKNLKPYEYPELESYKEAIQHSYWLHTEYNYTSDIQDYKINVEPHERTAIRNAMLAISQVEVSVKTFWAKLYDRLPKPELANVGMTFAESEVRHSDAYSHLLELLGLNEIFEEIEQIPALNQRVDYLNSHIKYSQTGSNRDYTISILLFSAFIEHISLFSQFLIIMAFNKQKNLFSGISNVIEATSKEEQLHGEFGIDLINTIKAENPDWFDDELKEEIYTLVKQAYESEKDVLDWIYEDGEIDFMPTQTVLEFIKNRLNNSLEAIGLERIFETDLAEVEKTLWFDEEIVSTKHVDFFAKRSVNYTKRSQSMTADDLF", "T3 sequence (K1MC37 1-567 partner)": "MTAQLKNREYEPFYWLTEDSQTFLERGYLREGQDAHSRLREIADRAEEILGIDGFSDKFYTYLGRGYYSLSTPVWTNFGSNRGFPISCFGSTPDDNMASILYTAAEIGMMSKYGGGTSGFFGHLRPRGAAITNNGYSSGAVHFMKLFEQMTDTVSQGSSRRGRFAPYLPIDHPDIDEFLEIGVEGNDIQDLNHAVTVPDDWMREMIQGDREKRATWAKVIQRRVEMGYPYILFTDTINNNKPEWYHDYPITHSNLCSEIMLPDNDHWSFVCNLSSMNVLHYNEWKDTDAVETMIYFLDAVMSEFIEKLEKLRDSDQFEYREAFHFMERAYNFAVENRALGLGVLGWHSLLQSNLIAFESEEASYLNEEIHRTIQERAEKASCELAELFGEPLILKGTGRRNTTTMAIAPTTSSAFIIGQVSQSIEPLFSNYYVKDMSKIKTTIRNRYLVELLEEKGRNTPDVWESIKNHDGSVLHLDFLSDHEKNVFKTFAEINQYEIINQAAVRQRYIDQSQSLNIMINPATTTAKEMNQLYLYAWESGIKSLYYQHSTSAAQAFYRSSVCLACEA", "experiment": "RNR activity", "format": "biochemical", "settings": "weaker inhibition than dATP; ATP cone of NrdB"}, "[5]": {"biological_target": "Facklamia ignava NrdBΔGrx (NrdB lacking the Grx domain) (Facklamia ignava)", "experiment": "GEMMA (gas-phase electrophoretic macromolecule analysis); NrdB deletion proteins analysed with and without 50 uM dATP (the text does not tell the two conditions apart); 20 mM ammonium acetate pH 7.8, 1 mM DTT, 0.005% Tween 20; step: dimers to tetramer"}, "[6]": {"biological_target": "T3, F. ignava RNR holoenzyme (NrdA + NrdB)", "experiment": "RNR activity (dGDP formation by HPLC)", "format": "biochemical"}, "[7]": {"biological_target": "T4, heterologous F. ignava NrdA/L. blandensis NrdB holoenzyme (Leeuwenhoekiella blandensis, UniProt A3XHF9)", "T4 construct": "gene MED217_17135; mixed-species complex; F. ignava NrdA His6-tagged, E. coli; with Ribonucleoside-diphosphate reductase subunit alpha (Falseniella ignava CCUG 37419)", "T4 sequence (A3XHF9 1-427)": "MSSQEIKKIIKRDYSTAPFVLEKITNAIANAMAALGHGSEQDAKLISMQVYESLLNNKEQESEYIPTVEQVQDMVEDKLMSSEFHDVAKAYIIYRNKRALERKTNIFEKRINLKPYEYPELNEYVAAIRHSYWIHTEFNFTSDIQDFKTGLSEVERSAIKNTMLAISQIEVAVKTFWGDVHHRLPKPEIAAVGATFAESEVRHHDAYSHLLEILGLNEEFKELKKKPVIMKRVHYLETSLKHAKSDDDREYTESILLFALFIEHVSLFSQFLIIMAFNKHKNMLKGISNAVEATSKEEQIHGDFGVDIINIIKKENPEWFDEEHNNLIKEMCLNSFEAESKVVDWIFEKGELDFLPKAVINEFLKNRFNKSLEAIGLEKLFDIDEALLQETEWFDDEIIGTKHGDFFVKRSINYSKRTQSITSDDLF", "T4 sequence (K1MC37 1-567 partner)": "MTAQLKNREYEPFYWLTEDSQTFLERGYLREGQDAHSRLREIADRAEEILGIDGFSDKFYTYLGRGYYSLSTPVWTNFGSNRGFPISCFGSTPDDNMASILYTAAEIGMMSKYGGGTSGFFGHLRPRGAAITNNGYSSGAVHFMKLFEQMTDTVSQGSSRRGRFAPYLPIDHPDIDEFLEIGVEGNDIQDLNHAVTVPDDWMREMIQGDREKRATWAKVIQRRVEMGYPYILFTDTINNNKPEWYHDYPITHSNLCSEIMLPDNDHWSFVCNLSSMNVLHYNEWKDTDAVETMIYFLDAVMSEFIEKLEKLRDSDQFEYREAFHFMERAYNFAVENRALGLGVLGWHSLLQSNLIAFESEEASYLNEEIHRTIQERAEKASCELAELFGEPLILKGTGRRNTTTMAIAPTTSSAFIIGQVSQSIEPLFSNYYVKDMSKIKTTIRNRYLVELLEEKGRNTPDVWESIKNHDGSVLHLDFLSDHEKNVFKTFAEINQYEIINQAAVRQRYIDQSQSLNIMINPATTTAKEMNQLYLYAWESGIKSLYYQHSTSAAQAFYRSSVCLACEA", "experiment": "RNR activity (dGDP formation by HPLC)", "format": "biochemical", "settings": "GDP substrate, 2 mM dTTP, pH 8, room temperature; allosteric inhibition via L. blandensis NrdB ATP cone"}, "[8]": {"biological_target": "the molecule itself", "experiment": "SEC; Superdex 200 10/300, no effector; 50 mM KCl, 10 mM MgCl2, 0.1 mM DTT, 50 mM Tris-HCl pH 7.6, room temperature; NrdA 5 and 10 uM, NrdB 1.25-10 uM, mixture 10 uM of each"}, "[9]": {"biological_target": "the molecule itself", "experiment": "GEMMA (gas-phase electrophoretic macromolecule analysis); no effector; 0.05 mg/ml protein (0.025 mg/ml of each in mixtures), 20 mM ammonium acetate pH 7.8, 1 mM DTT, 0.005% Tween 20, room temperature"}, "[10]": {"biological_target": "the molecule itself", "experiment": "SEC; Superdex 200 10/300, 0.1 mM dATP in the mobile phase; 50 mM KCl, 10 mM MgCl2, 0.1 mM DTT, 50 mM Tris-HCl pH 7.6, room temperature; single subunits 5 and 10 uM, mixture 10 and 20 uM of each"}},
  "data": [
    {"molecule": "Nc1ncnc2c1ncn2[C@@H]1O[C@H](COP(=O)(O)OP(=O)(O)OP(=O)(O)O)[C@@H](O)[C@H]1O", "note": "[ATP]", "values": [
      {"measurement": "Kd", "setting": "[1]", "value": 6.8, "unit": "µM"}
    ]},
    {"molecule": "OCCSSCCO", "note": "[2-hydroxyethyl disulfide]", "values": [
      {"measurement": "Km", "setting": "[2]", "value": "600 ± 90", "unit": "µM"},
      {"measurement": "Km", "setting": "[3]", "value": "1300 ± 240", "unit": "µM"}
    ]},
    {"molecule": "Nc1ncnc2c1ncn2[C@H]1C[C@H](O)[C@@H](COP(=O)(O)OP(=O)(O)O)O1", "note": "[dADP]", "values": [
      {"measurement": "Kd", "setting": "[1]", "value": 5.8, "unit": "µM"},
      {"measurement": "RNR activity", "setting": "[4]", "value": "Titration with dADP inhibited the WT enzyme activity (Fig. S2)"}
    ]},
    {"molecule": "Facklamia ignava NrdBΔGrx (NrdB lacking the Grx domain) (domain or fragment)", "values": [
      {"measurement": "stoichiometry N", "setting": "[5]", "value": 4}
    ]},
    {"molecule": "Nc1ncnc2c1ncn2[C@H]1C[C@H](O)[C@@H](COP(=O)(O)OP(=O)(O)OP(=O)(O)O)O1", "note": "[dATP]", "values": [
      {"measurement": "Kd", "setting": "[1]", "value": 0.4, "unit": "µM"},
      {"measurement": "Ki", "setting": "[6]", "value": "1.3 ± 0.23", "unit": "µM"},
      {"measurement": "Ki", "setting": "[7]", "value": "~70", "unit": "µM"}
    ]},
    {"molecule": "B1", "values": [
      {"measurement": "stoichiometry N", "setting": "[8]", "value": 2}
    ]},
    {"molecule": "B2", "values": [
      {"measurement": "stoichiometry N", "setting": "[9]", "value": 2},
      {"measurement": "stoichiometry N", "setting": "[10]", "value": 4}
    ]}
  ]
}
